Experimental findings from PMC9938908, “Unraveling topoisomerase IA gate dynamics in presence of PPEF and its preclinical evaluation against multidrug-resistant pathogens” (Communications Biology, 2023) are described below.

As usually defined, the pIC50 is −log10 of the IC50, conventionally taken in molar units. Low readings indicate a large IC50, high ones a small IC50.

The structures appear in SMILES notation. pIC50: −log10 of the molar value.

Holding throughout (format): biochemical
Assay [1] concerns the target T1, S. aureus topoisomerase IA (SaTopoIA) (Staphylococcus aureus, UniProt Q5HGI2).
T1 construct: gene topA; N-terminal His-tag, pET28a(+), 2070 bp, 79 kDa
T1 sequence (Q5HGI2 1-689): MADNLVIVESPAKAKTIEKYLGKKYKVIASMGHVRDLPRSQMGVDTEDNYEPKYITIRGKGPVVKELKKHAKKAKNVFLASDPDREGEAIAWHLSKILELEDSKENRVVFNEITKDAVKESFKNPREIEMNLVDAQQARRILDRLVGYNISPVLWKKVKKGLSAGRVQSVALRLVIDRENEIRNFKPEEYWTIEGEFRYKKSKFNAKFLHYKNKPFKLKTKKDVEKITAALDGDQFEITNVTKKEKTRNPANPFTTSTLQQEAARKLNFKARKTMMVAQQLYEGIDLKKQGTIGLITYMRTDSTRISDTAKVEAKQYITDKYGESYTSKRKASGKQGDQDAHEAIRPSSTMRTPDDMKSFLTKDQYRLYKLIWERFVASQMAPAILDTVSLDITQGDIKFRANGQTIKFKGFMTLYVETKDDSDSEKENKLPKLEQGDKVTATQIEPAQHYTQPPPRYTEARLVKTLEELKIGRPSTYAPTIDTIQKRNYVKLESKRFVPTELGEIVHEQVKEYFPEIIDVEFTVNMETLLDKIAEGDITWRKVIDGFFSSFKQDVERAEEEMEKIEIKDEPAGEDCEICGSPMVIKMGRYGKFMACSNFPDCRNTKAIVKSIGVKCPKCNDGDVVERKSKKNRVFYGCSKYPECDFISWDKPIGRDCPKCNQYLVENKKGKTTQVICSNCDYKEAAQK
Nature of the assay: DNA relaxation assay with pHOT-1 plasmid; also ssDNA religation and plasmid cleavage assays.

The target of assay [2] is T2, E. coli topoisomerase III (EcTopoIII) (Escherichia coli, UniProt P14294).
T2 construct: gene topB; N-terminal His-tag, pET28a(+), 1962 bp, 73 kDa
Nature of the assay: DNA relaxation assay with pHOT-1 plasmid, agarose gel.

Assay [3] has as its target T3, E. coli topoisomerase IA (EcTopoIA) (Escherichia coli, UniProt P06612).
T3 construct: gene topA; expressed in pET28a(+), purified
The description is as above.

In assay [4] the target is T4, A. baumannii topoisomerase IA (AbTopoIA) (Acinetobacter baumannii, UniProt A0ABX6CBM5).
T4 construct: gene topA; N-terminal His-tag, pET28a(+), 2637 bp, 98 kDa
T4 sequence (A0ABX6CBM5 1-878): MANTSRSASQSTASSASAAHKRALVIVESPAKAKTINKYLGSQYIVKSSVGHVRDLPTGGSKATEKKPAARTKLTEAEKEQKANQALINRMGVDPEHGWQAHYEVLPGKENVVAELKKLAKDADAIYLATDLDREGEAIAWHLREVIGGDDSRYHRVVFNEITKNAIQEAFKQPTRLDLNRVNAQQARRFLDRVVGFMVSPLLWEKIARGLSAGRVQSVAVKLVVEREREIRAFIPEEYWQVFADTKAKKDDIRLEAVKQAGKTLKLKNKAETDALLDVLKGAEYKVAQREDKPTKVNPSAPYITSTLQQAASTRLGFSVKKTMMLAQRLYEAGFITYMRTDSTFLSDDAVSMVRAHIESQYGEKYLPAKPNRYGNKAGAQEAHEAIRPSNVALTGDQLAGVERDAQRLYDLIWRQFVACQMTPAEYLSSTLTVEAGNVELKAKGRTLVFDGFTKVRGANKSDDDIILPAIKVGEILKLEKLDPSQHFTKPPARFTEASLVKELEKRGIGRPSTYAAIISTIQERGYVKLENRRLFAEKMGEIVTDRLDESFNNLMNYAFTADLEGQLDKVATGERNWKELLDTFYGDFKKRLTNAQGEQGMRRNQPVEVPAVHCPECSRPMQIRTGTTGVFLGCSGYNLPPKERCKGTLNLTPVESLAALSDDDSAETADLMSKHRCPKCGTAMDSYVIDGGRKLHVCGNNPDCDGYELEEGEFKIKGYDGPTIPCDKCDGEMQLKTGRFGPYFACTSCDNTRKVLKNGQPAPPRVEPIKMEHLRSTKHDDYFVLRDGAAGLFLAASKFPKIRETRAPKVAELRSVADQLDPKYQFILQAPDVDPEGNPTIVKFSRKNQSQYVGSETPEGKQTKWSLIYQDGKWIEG
Described as above.

T2 sequence (P14294 whole entry): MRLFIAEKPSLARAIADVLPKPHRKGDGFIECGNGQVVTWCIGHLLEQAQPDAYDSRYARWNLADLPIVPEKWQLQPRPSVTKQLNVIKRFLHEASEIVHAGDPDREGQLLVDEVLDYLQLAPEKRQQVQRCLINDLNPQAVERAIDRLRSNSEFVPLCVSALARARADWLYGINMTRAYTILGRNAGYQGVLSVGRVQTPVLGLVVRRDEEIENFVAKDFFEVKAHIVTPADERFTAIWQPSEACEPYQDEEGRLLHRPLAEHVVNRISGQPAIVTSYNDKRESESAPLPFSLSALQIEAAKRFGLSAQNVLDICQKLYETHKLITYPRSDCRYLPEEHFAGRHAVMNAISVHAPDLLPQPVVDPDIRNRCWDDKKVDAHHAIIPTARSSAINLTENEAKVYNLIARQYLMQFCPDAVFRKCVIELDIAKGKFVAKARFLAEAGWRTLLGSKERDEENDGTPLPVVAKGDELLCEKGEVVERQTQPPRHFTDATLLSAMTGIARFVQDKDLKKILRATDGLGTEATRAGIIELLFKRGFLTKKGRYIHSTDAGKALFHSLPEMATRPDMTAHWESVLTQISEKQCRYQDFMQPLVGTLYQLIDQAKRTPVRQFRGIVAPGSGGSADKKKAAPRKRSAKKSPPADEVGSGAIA
T3 sequence (P06612 whole entry): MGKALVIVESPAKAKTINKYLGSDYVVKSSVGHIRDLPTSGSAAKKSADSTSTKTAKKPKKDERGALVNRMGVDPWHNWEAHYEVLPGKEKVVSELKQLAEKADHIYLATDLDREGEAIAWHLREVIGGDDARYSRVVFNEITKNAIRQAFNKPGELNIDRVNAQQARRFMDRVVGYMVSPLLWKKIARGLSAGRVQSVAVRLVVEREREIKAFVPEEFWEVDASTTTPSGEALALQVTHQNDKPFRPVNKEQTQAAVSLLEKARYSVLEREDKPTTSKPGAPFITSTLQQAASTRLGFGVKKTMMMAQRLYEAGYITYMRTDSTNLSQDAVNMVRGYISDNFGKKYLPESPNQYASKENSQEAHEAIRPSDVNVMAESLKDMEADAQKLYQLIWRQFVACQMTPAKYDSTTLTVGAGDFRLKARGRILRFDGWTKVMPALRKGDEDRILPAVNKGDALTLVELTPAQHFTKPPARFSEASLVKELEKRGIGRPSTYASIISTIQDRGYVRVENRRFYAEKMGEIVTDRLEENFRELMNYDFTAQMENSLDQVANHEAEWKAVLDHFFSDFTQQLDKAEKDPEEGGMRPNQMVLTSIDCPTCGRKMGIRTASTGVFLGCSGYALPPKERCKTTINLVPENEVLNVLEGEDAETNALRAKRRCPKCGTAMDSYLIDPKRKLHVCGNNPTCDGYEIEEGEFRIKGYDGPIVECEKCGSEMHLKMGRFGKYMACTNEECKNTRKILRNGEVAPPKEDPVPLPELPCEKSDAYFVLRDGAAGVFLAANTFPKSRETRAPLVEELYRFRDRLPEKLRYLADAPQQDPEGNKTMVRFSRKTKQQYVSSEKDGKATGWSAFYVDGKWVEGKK

On to `CCCCN1CCN(c2ccc3[nH]c(-c4ccc5[nH]c(-c6ccc(OC)c(OC)c6)nc5c4)nc3c2)CC1` [BPVF, 5-(4-butylpiperazin-1-yl)-2′-(3,4-dimethoxyphenyl)-1H,1′H-2,5′ bibenzo[d]imidazole], for which the negative-log IC50 (pIC50) in assay [1] is 4.38; in assay [2], 5.71.

For the molecule `CCCN1CCN(c2ccc3nc(-c4ccc5nc(-c6ccc(OCC)cc6)[nH]c5c4)[nH]c3c2)CC1` [PPEF, 2′-(4-ethoxyphenyl)-5-(4-propylpiperazin-1-yl)-1H,1′H-2,5′-bibenzo(d)imidazole], the pIC50 was 4.81 in assay [1], 5.80 in assay [2], 5.57 in assay [3] and 5.02 in assay [4].
